Source: ChEMBL document CHEMBL4270552, “4-(Phenoxy) and 4-(benzyloxy)benzamides as potent and selective inhibitors of mono-ADP-ribosyltransferase PARP10/ARTD10” (Eur J Med Chem, 2018)

Columns and labels:
[1] = biological target: Protein mono-ADP-ribosyltransferase PARP14 (Homo sapiens, UniProt Q460N5); assay: Inhibition of N-terminal His-tagged thioredoxin-fused human ARTD8 (1535 to 1801 residues) expressed in Escherichia coli Rosetta2 (DE3) after 21 hrs in presence of NAD+
[2] = biological target: T1, Protein mono-ADP-ribosyltransferase PARP10 (Homo sapiens, UniProt Q53GL7); assay: Inhibition of C-terminal His-tagged human ARTD10 (809 to 1017 residues) expressed in Escherichia coli Rosetta2 (DE3) using SRPK2 as substrate after 13 hrs in presence of NAD+
T1 sequence (Q53GL7 whole entry): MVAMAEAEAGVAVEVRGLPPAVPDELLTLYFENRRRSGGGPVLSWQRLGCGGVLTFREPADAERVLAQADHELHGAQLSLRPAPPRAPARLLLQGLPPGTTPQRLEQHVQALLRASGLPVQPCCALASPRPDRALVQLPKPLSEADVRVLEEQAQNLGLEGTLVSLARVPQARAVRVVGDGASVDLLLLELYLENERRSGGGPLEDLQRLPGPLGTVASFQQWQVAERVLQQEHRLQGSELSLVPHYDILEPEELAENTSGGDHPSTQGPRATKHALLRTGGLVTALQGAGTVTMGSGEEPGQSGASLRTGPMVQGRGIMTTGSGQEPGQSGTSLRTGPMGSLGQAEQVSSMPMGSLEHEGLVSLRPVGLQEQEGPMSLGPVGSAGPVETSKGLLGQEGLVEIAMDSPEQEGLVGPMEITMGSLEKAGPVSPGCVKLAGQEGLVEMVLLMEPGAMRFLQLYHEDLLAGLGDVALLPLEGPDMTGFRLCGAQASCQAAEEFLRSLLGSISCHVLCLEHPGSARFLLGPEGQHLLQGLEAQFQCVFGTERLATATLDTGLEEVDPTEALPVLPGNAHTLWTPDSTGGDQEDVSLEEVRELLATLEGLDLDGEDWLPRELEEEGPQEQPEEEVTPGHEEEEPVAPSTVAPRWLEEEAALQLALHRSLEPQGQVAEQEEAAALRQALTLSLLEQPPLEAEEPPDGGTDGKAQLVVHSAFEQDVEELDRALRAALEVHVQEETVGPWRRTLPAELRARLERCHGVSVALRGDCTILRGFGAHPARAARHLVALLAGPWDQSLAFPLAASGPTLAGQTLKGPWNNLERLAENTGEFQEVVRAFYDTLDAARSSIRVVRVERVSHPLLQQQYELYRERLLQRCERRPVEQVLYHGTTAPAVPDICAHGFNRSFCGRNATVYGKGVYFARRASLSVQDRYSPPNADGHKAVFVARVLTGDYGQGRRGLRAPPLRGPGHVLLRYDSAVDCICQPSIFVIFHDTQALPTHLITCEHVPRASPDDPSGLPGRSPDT

[3] = biological target: T2, Protein mono-ADP-ribosyltransferase PARP16 (Homo sapiens, UniProt Q8N5Y8); assay: Inhibition of N-terminal His-tagged human ARTD15 (1 to 280 residues) expressed in Escherichia coli Rosetta2 (DE3) after 24 hrs in presence of NAD+
T2 sequence (Q8N5Y8 whole entry): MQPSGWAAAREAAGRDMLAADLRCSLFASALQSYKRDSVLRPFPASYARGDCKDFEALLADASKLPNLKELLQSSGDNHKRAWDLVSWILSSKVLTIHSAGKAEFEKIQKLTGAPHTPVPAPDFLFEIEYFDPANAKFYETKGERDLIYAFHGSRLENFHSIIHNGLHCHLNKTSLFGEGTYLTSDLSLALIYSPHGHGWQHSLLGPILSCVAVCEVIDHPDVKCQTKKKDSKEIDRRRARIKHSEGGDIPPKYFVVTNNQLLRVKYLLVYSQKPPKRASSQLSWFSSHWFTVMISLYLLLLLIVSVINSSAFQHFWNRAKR

[4] = biological target: T3, Protein mono-ADP-ribosyltransferase PARP3 (Homo sapiens, UniProt Q9Y6F1); assay: Inhibition of N-terminal His-tagged thioredoxin-fused human ARTD3 (1 to 533 residues) expressed in Escherichia coli Rosetta2 (DE3) using DNA as substrate after 3 hrs in presence of NAD+
T3 sequence (Q9Y6F1 whole entry): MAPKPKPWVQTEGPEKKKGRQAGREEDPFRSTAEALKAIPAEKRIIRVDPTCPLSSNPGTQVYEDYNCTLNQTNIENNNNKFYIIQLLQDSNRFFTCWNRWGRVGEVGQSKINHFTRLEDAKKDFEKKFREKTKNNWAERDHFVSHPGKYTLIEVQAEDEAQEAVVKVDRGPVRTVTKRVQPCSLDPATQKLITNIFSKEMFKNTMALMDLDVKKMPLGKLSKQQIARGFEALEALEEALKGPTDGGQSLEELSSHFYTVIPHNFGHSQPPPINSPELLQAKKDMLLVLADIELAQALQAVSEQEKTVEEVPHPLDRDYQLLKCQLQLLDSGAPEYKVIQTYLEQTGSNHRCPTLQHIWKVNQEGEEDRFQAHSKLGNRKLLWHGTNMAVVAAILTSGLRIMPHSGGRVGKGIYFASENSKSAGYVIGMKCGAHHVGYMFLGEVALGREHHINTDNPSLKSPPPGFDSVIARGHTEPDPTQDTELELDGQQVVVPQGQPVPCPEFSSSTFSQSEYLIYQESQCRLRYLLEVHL

[5] = biological target: Poly [ADP-ribose] polymerase 1 (Homo sapiens, UniProt P09874); assay: Inhibition of N-terminal His-tagged human ARTD1 (1 to 1014 residues) expressed in Escherichia coli Rosetta2 (DE3) using activated DNA as substrate after 1.5 hrs in presence of NAD+
[6] = biological target: Protein mono-ADP-ribosyltransferase PARP9 (Homo sapiens) (UniProt Q8IXQ6); note: test concentration or dose not given here
[7] = biological target: T4, Protein mono-ADP-ribosyltransferase PARP10 (Homo sapiens) (UniProt Q53GL7); conditions: U2OS
T4 sequence (whole entry): T1 sequence (Q53GL7 whole entry)
Description: Stabilization of ARTD10 in human U2OS cells assessed as increase in melting temperature at 10 uM by CESTA

Poly [ADP-ribose] polymerase 1, sequence (P09874 whole entry, the tested form may be a part): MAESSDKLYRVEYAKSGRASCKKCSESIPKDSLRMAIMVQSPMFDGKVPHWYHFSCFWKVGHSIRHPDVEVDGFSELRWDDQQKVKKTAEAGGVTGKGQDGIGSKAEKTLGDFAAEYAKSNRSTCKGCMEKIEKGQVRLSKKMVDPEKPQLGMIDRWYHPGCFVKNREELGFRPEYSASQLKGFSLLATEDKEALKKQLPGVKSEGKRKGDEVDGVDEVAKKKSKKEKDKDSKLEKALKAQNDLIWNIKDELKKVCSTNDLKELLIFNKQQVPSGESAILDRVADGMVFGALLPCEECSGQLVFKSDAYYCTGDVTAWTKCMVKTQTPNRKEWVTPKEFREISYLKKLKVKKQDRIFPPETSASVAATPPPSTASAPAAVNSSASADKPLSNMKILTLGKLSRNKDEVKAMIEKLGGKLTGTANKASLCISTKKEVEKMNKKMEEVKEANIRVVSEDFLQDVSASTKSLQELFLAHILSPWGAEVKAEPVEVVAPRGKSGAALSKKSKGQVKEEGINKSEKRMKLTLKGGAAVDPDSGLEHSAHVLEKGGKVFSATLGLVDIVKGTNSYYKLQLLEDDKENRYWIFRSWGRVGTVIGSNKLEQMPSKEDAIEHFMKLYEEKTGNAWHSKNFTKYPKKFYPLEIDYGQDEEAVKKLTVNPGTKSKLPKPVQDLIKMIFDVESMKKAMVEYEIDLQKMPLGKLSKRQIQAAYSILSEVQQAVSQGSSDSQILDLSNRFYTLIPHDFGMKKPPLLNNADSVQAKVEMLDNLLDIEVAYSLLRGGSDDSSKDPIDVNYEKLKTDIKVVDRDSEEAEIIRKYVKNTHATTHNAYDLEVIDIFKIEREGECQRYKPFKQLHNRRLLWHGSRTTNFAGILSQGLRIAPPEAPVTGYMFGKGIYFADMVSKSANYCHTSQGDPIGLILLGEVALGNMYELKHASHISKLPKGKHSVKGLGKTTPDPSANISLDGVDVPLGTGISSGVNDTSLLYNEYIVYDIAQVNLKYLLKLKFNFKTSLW
Protein mono-ADP-ribosyltransferase PARP14, sequence (Q460N5 whole entry, the tested form may be a part): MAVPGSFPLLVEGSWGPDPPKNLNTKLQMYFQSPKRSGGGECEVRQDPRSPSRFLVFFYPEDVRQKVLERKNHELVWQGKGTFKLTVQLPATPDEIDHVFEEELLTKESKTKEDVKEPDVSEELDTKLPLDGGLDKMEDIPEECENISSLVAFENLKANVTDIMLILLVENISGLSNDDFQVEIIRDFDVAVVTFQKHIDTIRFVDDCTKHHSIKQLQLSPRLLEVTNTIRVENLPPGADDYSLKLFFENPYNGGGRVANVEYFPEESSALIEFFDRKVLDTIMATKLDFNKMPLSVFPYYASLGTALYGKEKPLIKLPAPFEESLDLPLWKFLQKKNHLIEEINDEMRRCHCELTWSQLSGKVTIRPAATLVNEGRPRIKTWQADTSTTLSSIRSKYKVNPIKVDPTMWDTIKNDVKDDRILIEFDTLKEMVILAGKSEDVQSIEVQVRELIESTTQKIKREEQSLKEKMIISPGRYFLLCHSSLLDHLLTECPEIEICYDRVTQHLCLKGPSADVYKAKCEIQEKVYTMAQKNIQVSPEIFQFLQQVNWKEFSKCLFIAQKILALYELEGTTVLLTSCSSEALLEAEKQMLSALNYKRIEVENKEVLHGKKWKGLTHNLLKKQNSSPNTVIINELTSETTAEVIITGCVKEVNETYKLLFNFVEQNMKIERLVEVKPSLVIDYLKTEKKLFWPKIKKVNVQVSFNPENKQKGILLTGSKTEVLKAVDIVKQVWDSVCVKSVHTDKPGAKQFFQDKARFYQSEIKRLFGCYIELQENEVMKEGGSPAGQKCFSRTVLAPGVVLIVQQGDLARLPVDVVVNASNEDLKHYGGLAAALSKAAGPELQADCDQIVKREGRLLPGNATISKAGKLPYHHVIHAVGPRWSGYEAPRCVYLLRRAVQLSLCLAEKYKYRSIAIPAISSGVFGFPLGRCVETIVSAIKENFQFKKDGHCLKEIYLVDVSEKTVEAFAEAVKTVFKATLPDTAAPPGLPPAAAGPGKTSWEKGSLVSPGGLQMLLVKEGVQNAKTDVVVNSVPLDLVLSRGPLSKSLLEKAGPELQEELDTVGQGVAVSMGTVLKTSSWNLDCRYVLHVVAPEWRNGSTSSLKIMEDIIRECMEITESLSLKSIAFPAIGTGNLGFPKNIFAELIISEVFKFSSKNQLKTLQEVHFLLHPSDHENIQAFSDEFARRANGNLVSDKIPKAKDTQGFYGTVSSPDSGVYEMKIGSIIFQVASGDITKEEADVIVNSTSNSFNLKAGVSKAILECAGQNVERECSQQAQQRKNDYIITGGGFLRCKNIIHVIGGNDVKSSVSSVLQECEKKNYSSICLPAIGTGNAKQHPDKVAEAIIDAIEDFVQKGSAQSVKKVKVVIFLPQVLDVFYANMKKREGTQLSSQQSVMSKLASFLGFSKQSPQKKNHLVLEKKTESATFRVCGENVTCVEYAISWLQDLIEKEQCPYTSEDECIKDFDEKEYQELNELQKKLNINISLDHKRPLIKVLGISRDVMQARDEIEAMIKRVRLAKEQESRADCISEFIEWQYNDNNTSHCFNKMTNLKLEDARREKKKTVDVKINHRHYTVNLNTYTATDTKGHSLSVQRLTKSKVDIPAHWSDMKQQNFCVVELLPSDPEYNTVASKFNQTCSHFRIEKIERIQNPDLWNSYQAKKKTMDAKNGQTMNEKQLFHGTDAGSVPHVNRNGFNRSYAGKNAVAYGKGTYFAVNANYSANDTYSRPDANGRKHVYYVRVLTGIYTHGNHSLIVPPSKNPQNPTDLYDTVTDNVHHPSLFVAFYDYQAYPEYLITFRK

Row | Structure (SMILES) | IC50 [1] [µM] | IC50 ([2]; read-out: IC50) [µM] | IC50 ([2]; read-out: pIC50 (converted)) [µM] | IC50 [3] [µM] | IC50 [4] [µM] | IC50 [5] [µM] | ΔTm [6] [°C] | Tm [7] [°C]
1 | COc1ccc(C(N)=O)cc1 | > 10 | 2.8 | 2.75 | > 10 | > 100 | 57 | 0.15 | –
2 | NC(=O)c1ccc(Oc2ccc(C(=O)O)cc2)cc1 | > 10 | 0.18 | 0.186 | > 10 | > 100 | > 100 | 1.2 | –
3 | NC(=O)c1ccc(OCc2ccccc2F)cc1 | 10 | 0.23 | 0.234 | > 10 | > 100 | > 100 | 0.76 | 54 to 56
4 | NC(=O)c1ccc(Oc2ccc(C=O)cc2)cc1 | > 10 | 0.71 | – | > 10 | 86 | > 100 | 0.04 | 54 to 56
